Results as given in ChEMBL document CHEMBL2073830, “A novel inhibitor of the mammalian peptide transporter PEPT1” (Biochemistry, 2001).
Non-standard residues stand in square brackets, D forms with d. Residues, ends and D or L forms follow the SMILES beside them. *: point of attachment. Cbz = O=C(OCc1ccccc1)*

Target: T1, Solute carrier family 15 member 1 (Homo sapiens, UniProt P46059)
T1 sequence (P46059 whole entry): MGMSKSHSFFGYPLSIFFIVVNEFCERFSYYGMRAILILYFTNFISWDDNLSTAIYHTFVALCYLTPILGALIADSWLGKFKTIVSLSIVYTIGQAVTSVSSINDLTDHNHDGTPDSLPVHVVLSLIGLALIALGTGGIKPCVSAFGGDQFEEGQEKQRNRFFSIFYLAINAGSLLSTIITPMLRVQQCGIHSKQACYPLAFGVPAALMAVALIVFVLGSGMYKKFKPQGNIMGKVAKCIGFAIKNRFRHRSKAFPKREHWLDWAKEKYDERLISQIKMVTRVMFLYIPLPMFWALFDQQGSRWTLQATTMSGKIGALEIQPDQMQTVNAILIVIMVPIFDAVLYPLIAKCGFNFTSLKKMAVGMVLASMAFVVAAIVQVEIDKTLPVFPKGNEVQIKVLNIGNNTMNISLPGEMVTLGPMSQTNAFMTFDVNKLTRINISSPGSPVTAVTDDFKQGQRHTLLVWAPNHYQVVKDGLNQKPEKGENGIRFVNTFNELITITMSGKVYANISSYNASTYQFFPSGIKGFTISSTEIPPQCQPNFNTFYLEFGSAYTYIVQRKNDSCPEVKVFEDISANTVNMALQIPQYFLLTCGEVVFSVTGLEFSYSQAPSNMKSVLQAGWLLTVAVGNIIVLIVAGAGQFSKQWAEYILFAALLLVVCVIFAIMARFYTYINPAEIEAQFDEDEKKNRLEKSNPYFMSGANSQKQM
Assay: TP_TRANSPORTER: inhibition of Gly-Sar uptake in Caco-2 cells
Type: functional, cell-based

| SMILES | Ki |
| --- | --- |
| N[C@@H](CCCCNC(=O)OCc1ccc([N+](=O)[O-])cc1)C(=O)N1CCC[C@H]1C(=O)O | 19 µM |
| NCCCC[C@H](N)C(=O)N1CCC[C@@H]1C(=O)O (H-Lys-[dP]-OH) | 350 µM |
| NCCCC[C@H](NC(=O)OCc1ccccc1)C(=O)N1CCC[C@H]1C(=O)O (Cbz-Lys-Pro-OH) | 33 µM |
